System: MV-4-11 cells
Experiment: Gene expression microarray analysis (Affymetrix PrimeView) and GSEA
Assay type: cell-based, human
Design: RFU PODN (11730768_x_at) / Fold change /veh PODN (11730768_x_at) / RFU LINC00158 (11744669_a_at) / Fold change /veh LINC00158 (11744669_a_at) / RFU DUSP10 (11751237_a_at) / Fold change /veh DUSP10 (11751237_a_at) / RFU ID3 (11757404_x_at) / Fold change /veh ID3 (11757404_x_at) / RFU PLEKHG5 (11737974_s_at) / Fold change /veh PLEKHG5 (11737974_s_at) / RFU LRRC4B (11730491_at) / Fold change /veh LRRC4B (11730491_at) / RFU GIMAP4 (11747438_a_at) / Fold change /veh GIMAP4 (11747438_a_at) / RFU KRT8 (11758183_x_at) / Fold change /veh KRT8 (11758183_x_at) / RFU CNN1 (11734310_a_at) / Fold change /veh CNN1 (11734310_a_at) / RFU VPS37D (11726825_at) / Fold change /veh VPS37D (11726825_at) / RFU C10orf10 (11716522_x_at) / Fold change /veh C10orf10 (11716522_x_at) / RFU KIR2DL2 /// KIR2DL4 /// KIR2DL5A /// KIR2DL5B /// KIR2DS1 /// KIR2DS2 /// KIR2DS3 /// KIR2DS4 /// KIR3DL3 /// KIR3DL3 /// KIR3DS1 (11738374_at) / Fold change /veh KIR2DL2 /// KIR2DL4 /// KIR2DL5A /// KIR2DL5B /// KIR2DS1 /// KIR2DS2 /// KIR2DS3 /// KIR2DS4 /// KIR3DL3 /// KIR3DL3 /// KIR3DS1 (11738374_at) / RFU C1QL1 (11718748_at) / Fold change /veh C1QL1 (11718748_at) / RFU TMPRSS4 (11747572_a_at) / Fold change /veh TMPRSS4 (11747572_a_at) / RFU HAMP (11756126_x_at) / Fold change /veh HAMP (11756126_x_at) / RFU RNFT2 (11725882_a_at) / Fold change /veh RNFT2 (11725882_a_at) / RFU NR4A2 (11747474_a_at) / Fold change /veh NR4A2 (11747474_a_at) / RFU ABCC12 (11746883_a_at) / Fold change /veh ABCC12 (11746883_a_at) / RFU TMEM136 (11760407_x_at) / Fold change /veh TMEM136 (11760407_x_at) / RFU CLDN22 /// WWC2 (11732394_at) / Fold change /veh CLDN22 /// WWC2 (11732394_at) / RFU HLA-DPB1 (11760878_x_at) / Fold change /veh HLA-DPB1 (11760878_x_at) / RFU SPINT1 (11716480_a_at) / Fold change /veh SPINT1 (11716480_a_at) / RFU GAP43 (11754022_s_at) / Fold change /veh GAP43 (11754022_s_at) / RFU A4GNT (11735810_at) / Fold change /veh A4GNT (11735810_at) / RFU PRB3 (11715151_x_at) / Fold change /veh PRB3 (11715151_x_at) / RFU TUBB4B (11761932_at) / Fold change /veh TUBB4B (11761932_at) / RFU CAPN14 (11732068_a_at) / Fold change /veh CAPN14 (11732068_a_at) / RFU TMCC2 (11721928_a_at) / Fold change /veh TMCC2 (11721928_a_at) / RFU IRGQ (11745062_a_at) / Fold change /veh IRGQ (11745062_a_at) / RFU FAM174B (11720279_a_at) / Fold change /veh FAM174B (11720279_a_at) / RFU TMPRSS4 (11748680_a_at) / Fold change /veh TMPRSS4 (11748680_a_at) / RFU FAM212B (11763350_a_at) / Fold change /veh FAM212B (11763350_a_at) / RFU PLEKHG5 (11743358_a_at) / Fold change /veh PLEKHG5 (11743358_a_at) / RFU ZSCAN30 (11745921_a_at) / Fold change /veh ZSCAN30 (11745921_a_at) / RFU CMKLR1 (11741424_a_at) / Fold change /veh CMKLR1 (11741424_a_at) / RFU LOC101060620 /// MAPK8IP1 (11723275_at) / Fold change /veh LOC101060620 /// MAPK8IP1 (11723275_at) / RFU SPTSSB (11747773_x_at) / Fold change /veh SPTSSB (11747773_x_at) / RFU PRSS12 (11739890_at) / Fold change /veh PRSS12 (11739890_at) / RFU BIN1 (11741810_x_at) / Fold change /veh BIN1 (11741810_x_at) / RFU WNT11 (11732464_a_at) / Fold change /veh WNT11 (11732464_a_at) / RFU C10orf10 (11716521_a_at) / Fold change /veh C10orf10 (11716521_a_at) / RFU C5orf56 (11738089_at) / Fold change /veh C5orf56 (11738089_at) / RFU CYB561 (11721691_x_at) / Fold change /veh CYB561 (11721691_x_at) / RFU ANKRD19P (11752326_a_at) / Fold change /veh ANKRD19P (11752326_a_at) / RFU OR2T12 /// OR2T33 /// OR2T8 (11738714_s_at) / Fold change /veh OR2T12 /// OR2T33 /// OR2T8 (11738714_s_at) / RFU VCAN (11748164_a_at) / Fold change /veh VCAN (11748164_a_at) / RFU JSRP1 (11732532_at) / Fold change /veh JSRP1 (11732532_at) / RFU KRTAP10-11 (11738290_x_at) / Fold change /veh KRTAP10-11 (11738290_x_at) / RFU MYO3A (11730013_a_at) / Fold change /veh MYO3A (11730013_a_at) / RFU EBF3 (11725865_a_at) / Fold change /veh EBF3 (11725865_a_at) / RFU CAMK2N1 (11719241_x_at) / Fold change /veh CAMK2N1 (11719241_x_at) / RFU C5orf56 (11738088_a_at) / Fold change /veh C5orf56 (11738088_a_at) / RFU OLFML3 (11715873_a_at) / Fold change /veh OLFML3 (11715873_a_at) / RFU LOC100653217 /// NTM (11731650_a_at) / Fold change /veh LOC100653217 /// NTM (11731650_a_at) / RFU MAPK11 (11762145_a_at) / Fold change /veh MAPK11 (11762145_a_at) / RFU FIZ1 (11724087_x_at) / Fold change /veh FIZ1 (11724087_x_at) / RFU OASL (11726364_x_at) / Fold change /veh OASL (11726364_x_at) / RFU SOX15 (11748057_x_at) / Fold change /veh SOX15 (11748057_x_at) / RFU CD79A (11719716_a_at) / Fold change /veh CD79A (11719716_a_at) / RFU HIST1H1D (11736915_at) / Fold change /veh HIST1H1D (11736915_at) / RFU CASKIN2 (11723855_a_at) / Fold change /veh CASKIN2 (11723855_a_at) / RFU LOC730098 (11760151_x_at) / Fold change /veh LOC730098 (11760151_x_at) / RFU OR4N2 (11742367_at) / Fold change /veh OR4N2 (11742367_at) / RFU PRRT2 (11749266_a_at) / Fold change /veh PRRT2 (11749266_a_at) / RFU SNX32 (11753110_a_at) / Fold change /veh SNX32 (11753110_a_at) / RFU CDHR5 (11726645_a_at) / Fold change /veh CDHR5 (11726645_a_at) / RFU RCAN1 (11760418_a_at) / Fold change /veh RCAN1 (11760418_a_at) / RFU FAM167A (11723789_a_at) / Fold change /veh FAM167A (11723789_a_at) / RFU FAM26E (11764081_at) / Fold change /veh FAM26E (11764081_at) / RFU ISYNA1 (11749810_s_at) / Fold change /veh ISYNA1 (11749810_s_at) / RFU ACY1 (11761880_at) / Fold change /veh ACY1 (11761880_at) / RFU 11764098_at / Fold change /veh 11764098_at / RFU SAMD14 (11745864_x_at) / Fold change /veh SAMD14 (11745864_x_at) / RFU NPB (11741838_a_at) / Fold change /veh NPB (11741838_a_at) / RFU TMPRSS6 (11731388_a_at) / Fold change /veh TMPRSS6 (11731388_a_at) / RFU KRTAP10-2 (11738614_at) / Fold change /veh KRTAP10-2 (11738614_at) / RFU ARHGAP8 /// PRR5-ARHGAP8 (11727945_x_at) / Fold change /veh ARHGAP8 /// PRR5-ARHGAP8 (11727945_x_at) / RFU KRTAP5-7 /// NADSYN1 (11734609_at) / Fold change /veh KRTAP5-7 /// NADSYN1 (11734609_at) / RFU RASL12 (11751679_a_at) / Fold change /veh RASL12 (11751679_a_at) / RFU CDKN2B (11736163_a_at) / Fold change /veh CDKN2B (11736163_a_at) / RFU PRF1 (11729649_at) / Fold change /veh PRF1 (11729649_at) / RFU, ZNF638 /// ZNF638-IT1 / Fold change vs veh, ZNF638 /// ZNF638-IT1 / RFU, PANK3 / Fold change vs veh, PANK3 / RFU, SH3YL1 / Fold change vs veh, SH3YL1 / RFU, ZEB2 / Fold change vs veh, ZEB2 / RFU, NRIP1 / Fold change vs veh, NRIP1 / RFU, PTTG1IP / Fold change vs veh, PTTG1IP / RFU, CAPN2 / Fold change vs veh, CAPN2 / RFU, MED14 / Fold change vs veh, MED14 / RFU, SNORA58 / Fold change vs veh, SNORA58 / RFU, C1orf63 / Fold change vs veh, C1orf63 / RFU, LRRFIP1 / Fold change vs veh, LRRFIP1 / RFU, NDUFAF7 / Fold change vs veh, NDUFAF7 / RFU, SLC12A2 / Fold change vs veh, SLC12A2 / RFU, IBTK / Fold change vs veh, IBTK / RFU, ESF1 / Fold change vs veh, ESF1 / Fold change vs veh, TMEM50B / RFU, TAOK1 / Fold change vs veh, TAOK1 / RFU, ACBD3 / Fold change vs veh, ACBD3 / RFU, TMA16 / Fold change vs veh, TMA16 / RFU, RWDD3 / Fold change vs veh, RWDD3 / RFU, BCAT1 / Fold change vs veh, BCAT1 / RFU, EDEM3 / Fold change vs veh, EDEM3 / RFU, TMEM33 / Fold change vs veh, TMEM33 / RFU, WDR75 / Fold change vs veh, WDR75 / RFU, AHCTF1 / Fold change vs veh, AHCTF1 / RFU, TFRC / Fold change vs veh, TFRC / RFU, ZDHHC17 / Fold change vs veh, ZDHHC17 / RFU, NOM1 / Fold change vs veh, NOM1 / RFU, ARL8B / Fold change vs veh, ARL8B / RFU, ZBTB11 / Fold change vs veh, ZBTB11 / RFU, TAMM41 / Fold change vs veh, TAMM41 / RFU, KIAA1704 /// LOC100996395 / Fold change vs veh, KIAA1704 /// LOC100996395 / RFU, ING1 / Fold change vs veh, ING1 / RFU, TRMT61B / Fold change vs veh, TRMT61B / RFU, FUBP3 / Fold change vs veh, FUBP3 / RFU, TP53 / Fold change vs veh, TP53 / RFU, TNKS2 / Fold change vs veh, TNKS2 / RFU, ZFP14 / Fold change vs veh, ZFP14 / RFU, ACTR2 / Fold change vs veh, ACTR2 / RFU, PPP3R1 / Fold change vs veh, PPP3R1 / RFU, PIK3R1 / Fold change vs veh, PIK3R1 / RFU, HNRNPA1 / Fold change vs veh, HNRNPA1 / RFU, RNF170 / Fold change vs veh, RNF170 / RFU, ZNF28 / Fold change vs veh, ZNF28 / RFU, RNGTT / Fold change vs veh, RNGTT / RFU, OGT / Fold change vs veh, OGT / RFU, BRD1 / Fold change vs veh, BRD1 / RFU, MARS / Fold change vs veh, MARS / RFU, ZNF655 / Fold change vs veh, ZNF655 / RFU, FAHD1 / Fold change vs veh, FAHD1 / RFU, BDP1 / Fold change vs veh, BDP1 / RFU, LRRCC1 / Fold change vs veh, LRRCC1 / RFU, ARID1A / Fold change vs veh, ARID1A / RFU, ZNF146 / Fold change vs veh, ZNF146 / RFU, ZNF330 / Fold change vs veh, ZNF330 / RFU, GPN3 / Fold change vs veh, GPN3 / RFU, C9orf123 / Fold change vs veh, C9orf123 / RFU, N4BP2L2 / Fold change vs veh, N4BP2L2 / RFU, ARFIP1 / Fold change vs veh, ARFIP1 / RFU, FAM179B / Fold change vs veh, FAM179B / RFU, BCL10 / Fold change vs veh, BCL10 / RFU, UHRF1BP1L / Fold change vs veh, UHRF1BP1L / RFU, BET1 / Fold change vs veh, BET1 / RFU, CNOT2 / Fold change vs veh, CNOT2 / RFU, ZNF268 / Fold change vs veh, ZNF268 / Fold change vs veh, ZNF507 / RFU, DGCR2 / Fold change vs veh, DGCR2 / RFU, WDSUB1 / Fold change vs veh, WDSUB1 / Fold change vs veh, HSP90B1 /// MIR3652 / RFU, ADSS / Fold change vs veh, ADSS / RFU, GK / Fold change vs veh, GK / RFU, ZNF148 / Fold change vs veh, ZNF148 / RFU, TAF9 / Fold change vs veh, TAF9 / RFU, SLC1A5 / Fold change vs veh, SLC1A5 / RFU, SLMO2 / Fold change vs veh, SLMO2 / RFU, ABCC4 / Fold change vs veh, ABCC4 / RFU, LOC101060439 /// RAP1B / Fold change vs veh, LOC101060439 /// RAP1B / RFU, RFX7 / Fold change vs veh, RFX7 / RFU, GTPBP10 / Fold change vs veh, GTPBP10 / RFU, CNEP1R1 / Fold change vs veh, CNEP1R1 / RFU, BIVM-ERCC5 /// ERCC5 / Fold change vs veh, BIVM-ERCC5 /// ERCC5 / RFU, ILF3 / Fold change vs veh, ILF3 / RFU 11762660_at / Fold change /veh 11762660_at / RFU VCAN (11757783_s_at) / Fold change /veh VCAN (11757783_s_at) / RFU DDX43 (11728927_at) / Fold change /veh DDX43 (11728927_at) / RFU KRT8 (11758188_x_at) / Fold change /veh KRT8 (11758188_x_at) / RFU NKD1 (11759106_at) / Fold change /veh NKD1 (11759106_at) / RFU SRD5A1 (11742802_a_at) / Fold change /veh SRD5A1 (11742802_a_at) / RFU TPSAB1 /// TPSB2 (11721975_s_at) / Fold change /veh TPSAB1 /// TPSB2 (11721975_s_at) / RFU GSTM3 (11746129_a_at) / Fold change /veh GSTM3 (11746129_a_at) / RFU IL23R (11737362_x_at) / Fold change /veh IL23R (11737362_x_at) / RFU TMEM51 (11727254_a_at) / Fold change /veh TMEM51 (11727254_a_at) / RFU PIWIL2 (11732686_x_at) / Fold change /veh PIWIL2 (11732686_x_at) / RFU ORM1 (11744905_x_at) / Fold change /veh ORM1 (11744905_x_at) / RFU CCDC152 (11743942_at) / Fold change /veh CCDC152 (11743942_at) / RFU ECM1 (11717891_a_at) / Fold change /veh ECM1 (11717891_a_at) / RFU IL23R (11748794_a_at) / Fold change /veh IL23R (11748794_a_at) / RFU TNFAIP8L3 (11732012_x_at) / Fold change /veh TNFAIP8L3 (11732012_x_at) / RFU MBOAT4 (11741988_at) / Fold change /veh MBOAT4 (11741988_at) / RFU 11764193_at / Fold change /veh 11764193_at / RFU TMEM53 (11763286_at) / Fold change /veh TMEM53 (11763286_at) / RFU MAGEB2 (11727129_at) / Fold change /veh MAGEB2 (11727129_at) / RFU TMEM200A (11744735_a_at) / Fold change /veh TMEM200A (11744735_a_at) / RFU CCDC152 (11751479_a_at) / Fold change /veh CCDC152 (11751479_a_at) / RFU FAM211A (11726209_a_at) / Fold change /veh FAM211A (11726209_a_at) / RFU RGS16 (11746705_a_at) / Fold change /veh RGS16 (11746705_a_at) / RFU VCAN (11755009_s_at) / Fold change /veh VCAN (11755009_s_at) / RFU RHOB (11743442_s_at) / Fold change /veh RHOB (11743442_s_at) / RFU RGS16 (11720943_a_at) / Fold change /veh RGS16 (11720943_a_at) / RFU RGS16 (11720944_at) / Fold change /veh RGS16 (11720944_at) / RFU, VPS4B / Fold change vs veh, VPS4B / RFU, CREB1 / Fold change vs veh, CREB1 / RFU, DNAJC13 / Fold change vs veh, DNAJC13 / RFU, GNAQ / Fold change vs veh, GNAQ / RFU, CDK5R1 / Fold change vs veh, CDK5R1 / RFU, ZRANB3 / Fold change vs veh, ZRANB3 / RFU, CUL4A / Fold change vs veh, CUL4A / RFU, CCNY / Fold change vs veh, CCNY / RFU, UFL1 / Fold change vs veh, UFL1 / RFU, COG3 / Fold change vs veh, COG3 / RFU, DIAPH2 / Fold change vs veh, DIAPH2 / RFU, SKA2 / Fold change vs veh, SKA2 / RFU, AFF3 / Fold change vs veh, AFF3 / RFU, LMF1 / Fold change vs veh, LMF1 / RFU, IPO11 / Fold change vs veh, IPO11 / RFU, DFFB / Fold change vs veh, DFFB / RFU, FOXP1 / Fold change vs veh, FOXP1 / RFU, CARD8 / Fold change vs veh, CARD8 / RFU, STRN3 / Fold change vs veh, STRN3 / RFU, ADK / Fold change vs veh, ADK / RFU, RASSF2 / Fold change vs veh, RASSF2 / RFU, WIPF1 / Fold change vs veh, WIPF1 / RFU, LARP1B / Fold change vs veh, LARP1B / RFU, RASA1 / Fold change vs veh, RASA1 / RFU, RB1 / Fold change vs veh, RB1 / RFU, PPFIA1 / Fold change vs veh, PPFIA1 / RFU, MAT2A / Fold change vs veh, MAT2A / RFU, CCT5 / Fold change vs veh, CCT5 / RFU, WDR92 / Fold change vs veh, WDR92 / RFU, CUX1 / Fold change vs veh, CUX1 / RFU, TTC7A / Fold change vs veh, TTC7A / RFU, TMEM135 / Fold change vs veh, TMEM135 / RFU, DEPTOR / Fold change vs veh, DEPTOR / RFU, CPM / Fold change vs veh, CPM / RFU, DNAJB6 / Fold change vs veh, DNAJB6 / RFU, CACNA2D3 / Fold change vs veh, CACNA2D3 / RFU, DTX4 / Fold change vs veh, DTX4 / RFU, TFCP2 / Fold change vs veh, TFCP2 / RFU, GMCL1 /// GMCL1P1 / Fold change vs veh, GMCL1 /// GMCL1P1 / RFU, AEBP2 / Fold change vs veh, AEBP2 / RFU, SNHG1 /// SNORD22 /// SNORD25 /// SNORD26 /// SNORD27 /// SNORD28 /// SNORD29 /// SNORD31 / Fold change vs veh, SNHG1 /// SNORD22 /// SNORD25 /// SNORD26 /// SNORD27 /// SNORD28 /// SNORD29 /// SNORD31 / Fold change (Aza/veh), C12orf56 (ProbeSet 11735607_a_at) / Fold change (ACY-1035/veh), C12orf56 (ProbeSet 11735607_a_at) / Fold change (Aza/veh), FGFR1OP (ProbeSet 11751329_s_at) / Fold change (ACY-1035/veh), FGFR1OP (ProbeSet 11751329_s_at) / Fold change (Aza/veh), VPS36 (ProbeSet 11739960_a_at) / Fold change (ACY-1035/veh), VPS36 (ProbeSet 11739960_a_at) / RFU SYPL1 (11715823_x_at) / Fold change /veh SYPL1 (11715823_x_at) / RFU IGFBP7 (11715501_s_at) / Fold change /veh IGFBP7 (11715501_s_at) / RFU REEP3 (11722064_at) / Fold change /veh REEP3 (11722064_at) / RFU IGLL1 (11728026_x_at) / Fold change /veh IGLL1 (11728026_x_at): dose or concentration left out as unconfirmed
Details: MV-4-11 cells, 48 hours

## Nc1ncn([C@@H]2O[C@H](CO)[C@@H](O)[C@H]2O)c(=O)n1 [azacitidine]
  Fold change /veh REEP3 (11722064_at): 0.73

Reference: paper PMC5218480 (PLoS ONE, 2017)
